# Results: patent US20260276656A1, “GUT MICROBIOTA-RELATED METHODS FOR TREATING DEMENTIA AND AGE-DEPENDENT COGNITIVE DECLINE” (Albert-Ludwigs-Universitat Freiburg, priority 2019, published 2026)
# Columns and labels:
# Format in all cases: in vivo, mouse
# C57BL/6J mice [1] = assay: T-maze spontaneous alternation test (spatial working memory); details: old mice and old mice subjected to FMT from young donors; PLX5622 chow versus respective control mice; FIG. 15B
# Protocol: (§1) In order to acutely deplete the gut microbiota, 15-16 months old SPF males were treated via oral gavage with a mixture of antibiotics (ABX), containing Cefoxitin (Santa Cruz Biotechnology), Gentamicin (Sigma-Aldrich) Metronidazole (Sigma-Aldrich), and Vancomycin (Hikma-pharma), each 10 mg/kg in sterile 1×PBS, for three consecutive days. On the fourth day, the mice were treated with one dose of Clindamycin hydrochloride (33.3 mg/kg) (Sigma-Aldrich). Fecal microbiota transplantations (FMTs) were started 24 h later. To deplete csf1-dependent cells in vivo, including microglia, mice were provided with CSF1R-inhibitor PLX5622 (Plexxicon Inc.) mixed into AIN-76A standard chow at 1200 mg/kg (Research Diets Inc.) ad libitum. Respective controls received AIN-76A standard chow. Mice were injected with 5 mg/kg δ-valerobetaine (MCAT, Germany) 1 h before behavioral testing.
# (§2) For microbiota depletion studies, SPF mice were treated with 1 mg/ml of ampicillin (Auromedics), neomycin sulfate (Fisher), streptomycin (Sigma) and 0.5 mg/ml of vancomycin (Sagent) in the drinking water for 4-5 weeks (Khosravi et al., 2014). These mice were recolonized via FMT, which was achieved by oral gavage of a faecal slurry. Recipient mice had the food removed from the cage for 2 h prior to FMT. The faecal slurry was obtained by pooling faecal pellets from 8-14 donor mice. The pellets were weighed and resuspended by vortexing for 1 min in 1 mL PBS per 300 mg of faeces. After pelleting larger particles by centrifugation at 500×g for 5 min, the supernatant was collected for FMT. Each recipient mouse received 150 μl of faecal slurry by oral gavage. The remaining slurry was stored at −80° C. for 16S rRNA sequencing. Following FMT, the cages of recipient mice were replenished with dirty bedding and fresh faecal pellets from donor mice once and twice a week, respectively. Faecal pellets for 16S rRNA sequencing were collected the day before FMT and at the end of the experiment and were stored at −80° C. for DNA extraction. For re-colonization of ABX treated mice, FMTs from 8 weeks old or 15-16 months old males were undergone. Fresh fecal pellets are collected under a sterile hood and directly thoroughly homogenized in 0.1% L-Cysteine hydrochloride monohydrate in 1×PBS in order to maintain anaerobic microbes. The homogenates were spun down for 1 min, 200 g at 4° C. and the turbid supernatant was used to orally and rectally gavage the recipient mice. The FMT was performed twice 72 h apart.
# (§3) NNN-trimethyl-5-aminovalerate was dissolved in 0.9% NaCl and administered i.p. at a dose of 200 mg/kg in a volume of 10 ml/kg. As control the vehicle NaCl was injected.
# (§4) Mice were tested 40 min after drug- or vehicle injection or 4 weeks after FMT. We first performed the training run for the Novel-object recognition test, followed by the T maze test and then 6 h after the training session mice were tested in the Novel object recognition test. Spatial working memory was tested using the continuous spontaneous alternation task in a T-maze as described previously (Spowart-Manning, L. et al). Briefly, animals were set into the base of a T-maze and allowed to explore a randomly assigned T-maze arm until it returned to the base arm. Subsequently, the blocked arm was opened, and the animal was allowed to explore the complete maze. Once one arm of the T-maze was entered, the other arm was blocked until the animal returned to the base arm. Then, the exit of the base arm was blocked for 5 s and the animal was allowed to explore the maze again. The experiment was stopped after 14 free choice arm entries. Arm entries were scored as alternations if an animal chose the opposing arm compared to the arm visited immediately prior to the scored instance. The Novel Object Recognition (NOR) task was applied to evaluate recognition memory as published previously (Antunes, M. & Biala, G. et al). During the habituation phase, each mouse was allowed to explore two similar objects within a total exploration time of 20 s. […]
# C57BL/6J mice [2] = assay: Novel object recognition (NOR) test (recognition memory); details: old mice and old mice subjected to FMT from young donors; PLX5622 chow versus respective control mice; FIG. 15C-D
# Protocol: as §1, §2, §3, §4
# microglia = assay: Microglia depletion verified by Iba-1 immunohistochemistry; details: 1200 mg/kg in AIN-76A chow ad libitum; cortex and hippocampus; FIG. 15E-F
# Protocol: as §1
# Mice were lethally anesthetized with ketamine (100 mg/kg bodyweight) and xylazine (10 mg/kg body weight) followed by perfusion with 1×PBS through the left heart chamber. For histology, the brains were kept overnight in 4% PFA. The brains were then dehydrated in 30% sucrose and embedded in Tissue-Tek O.C.T.™ compound (Sakura Finetek Germany GmbH). […] Fluorescence imaging was performed with BZ-9000 Biorevo microscope (Keyence). Iba-1+DAPI+ cells were quantified using ImageJ (v. 1.53c).
structure (smiles),measurement,setting,value
"COc1ncc(F)cc1CNc1ccc(Cc2c[nH]c3ncc(C)cc23)c(F)n1 [PLX5622, reference compound]",T maze performance of mice lacking microglia,C57BL/6J mice [1],unchanged
same,NOR performance of mice lacking microglia,C57BL/6J mice [2],unchanged
same,microglia in brain tissue (Iba-1 immunohistochemistry),microglia,almost complete absence
